Experimental data as given in patent US8822503B2, “2-pyridone compounds” (Taisho Pharmaceutical Co., Ltd, priority 2009, dated 2014).

Biological target: T1, human liver GK (Homo sapiens, UniProt P35557)
T1 construct: GST (glutathione S-transferase) (N); made in house; host or cells: E. coli
T1 sequence (P35557 1-466 isoform P35557-2): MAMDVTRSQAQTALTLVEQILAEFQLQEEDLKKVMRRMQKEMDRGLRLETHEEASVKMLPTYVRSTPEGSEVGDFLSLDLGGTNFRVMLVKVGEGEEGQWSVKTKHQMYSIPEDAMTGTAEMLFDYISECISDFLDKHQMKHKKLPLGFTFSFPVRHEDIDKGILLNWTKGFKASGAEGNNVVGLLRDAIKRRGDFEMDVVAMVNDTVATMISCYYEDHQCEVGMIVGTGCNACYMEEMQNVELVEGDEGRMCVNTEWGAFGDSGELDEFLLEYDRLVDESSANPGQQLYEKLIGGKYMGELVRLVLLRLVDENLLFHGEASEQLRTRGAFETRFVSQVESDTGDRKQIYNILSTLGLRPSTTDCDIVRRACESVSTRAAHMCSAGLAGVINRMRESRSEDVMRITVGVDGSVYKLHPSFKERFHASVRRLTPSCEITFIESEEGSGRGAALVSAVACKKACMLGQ
Assay: GK activation test
Format: biochemical
Conditions: test compound concentration needed to activate 50% of maximum activation ability; 4 mM 14C-labeled glucose, 2 mM ATP, room temperature, 20 minutes
Outline: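 GST-tagged human liver GK from E. coli (0.24 μg/well) with 4 mM 14C-glucose, 2 mM ATP in Hepes-KOH pH 7.1, KCl, MgCl2, DTT, 1% DMSO, 20 min room temperature. Labeled glucose 6-phosphate captured on anion resin, eluted and counted. EC50 = concentration giving half of maximal activation.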

SMILES	EC50 [nM]
CCN(CC)CCCCc1ccc(/C(=C\C2CCCC2)c2ccc(C(F)(F)F)c(=O)[nH]2)cc1 [Example 1-39, 6-[(E)-2-Cyclopentyl-1-{4-[4-(diethylamino)butyl]phenyl}ethenyl]-3-(trifluoromethyl)pyridin-2(1H)-one]	500 to 3000
O=c1[nH]c(/C(=C/C2CCCC2)c2ccc(S(=O)(=O)CCCO)cc2)ccc1C(F)(F)F [Example 1-40, 6-[(E)-2-Cyclopentyl-1-{4-[(3-hydroxypropyl)sulfonyl]phenyl}ethenyl]-3-(trifluoromethyl)pyridin-2(1H)-one]	500 to 3000
CCN(CC)CCCS(=O)(=O)c1ccc(/C(=C\C2CCCC2)c2ccc(C(F)(F)F)c(=O)[nH]2)cc1 [Example 1-41, 6-[(E)-2-Cyclopentyl-1-(4-{[3-(diethylamino)propyl]sulfonyl}phenyl)ethenyl]-3-(trifluoromethyl)pyridin-2(1H)-one]	500 to 3000
CCN(CC)CCCC(=O)c1ccc(/C(=C\C2CCCC2)c2ccc(C(F)(F)F)c(=O)[nH]2)cc1 [Example 1-42, 6-[(E)-2-Cyclopentyl-1-{4-[4-(diethylamino)butanoyl]phenyl}ethenyl]-3-(trifluoromethyl)pyridin-2(1H)-one]	500 to 3000
CCN(CC)CCCNc1ccc(/C(=C\C2CCCC2)c2ccc(C(F)(F)F)c(=O)[nH]2)cc1 [Example 1-43, 6-[(E)-2-Cyclopentyl-1-(4-{[3-(diethylamino)propyl]amino}phenyl)ethenyl]-3-(trifluoromethyl)pyridin-2(1H)-one]	3000 to 10000
CCNCCCOc1ccc(/C(=C\C2CCCC2)c2ccc(C3CC3)c(=O)[nH]2)cc1Cl [Example 1-44, 6-[(E)-1-{3-Chloro-4-[3-(ethylamino)propoxy]phenyl}-2-cyclopentylethenyl]-3-cyclopropylpyridin-2(1H)-one]	500 to 3000
CCN(CC)CCNC(=O)c1ccc(/C(=C\C2CCCC2)c2ccc(C3CC3)c(=O)[nH]2)cc1 [Example 1-45, 4-[(E)-2-Cyclopentyl-1-(5-cyclopropyl-6-oxo-1,6-dihydropyridin-2-yl)ethenyl]-N-[2-(diethylamino)ethyl]benzamide]	500 to 3000
CN1CCN(S(=O)(=O)c2ccc(/C(=C\C3CCCC3)c3ccc(Cl)c(=O)[nH]3)cc2)CC1 [Example 1-46, 3-Chloro-6-[(E)-2-cyclopentyl-1-{4-[(4-methylpiperazin-1-yl)sulfonyl]phenyl}ethenyl]pyridin-2(1H)-one]	500 to 3000
CSc1ccc(/C(=C\C2CCOC2)c2ccc(C3CC3)c(=O)[nH]2)cc1 (stereo not shown) [Example 1-47, 3-Cyclopropyl-6-[(E)-1-[4-(methylsulfanyl)phenyl]-2-(tetrahydrofuran-3-yl)ethenyl]pyridin-2(1H)-one]	10 to 500
O=c1[nH]c(/C(=C/C2CCOC2)c2ccc(SC3CC3)cc2)ccc1C(F)(F)F (stereo not shown) [Example 1-48, 6-{(E)-1-[4-(Cyclopropylsulfanyl)phenyl]-2-(tetrahydrofuran-3-yl)ethenyl}-3-(trifluoromethyl)pyridin-2(1H)-one]	500 to 3000
CSc1ccc(/C(=C\CC2CCOC2)c2ccc(C3CC3)c(=O)[nH]2)cc1 (stereo not shown) [Example 1-49, 3-Cyclopropyl-6-{(1E)-1-[4-(methylsulfanyl)phenyl]-3-(tetrahydrofuran-3-yl)prop-1-en-1-yl}pyridin-2(1H)-one]	500 to 3000
COc1ccc(/C(=C\CC2CCCO2)c2ccc(C3CC3)c(=O)[nH]2)cc1Cl (stereo not shown) [Example 1-50, 6-[(1E)-1-(3-Chloro-4-methoxyphenyl)-3-(tetrahydrofuran-2-yl)prop-1-en-1-yl]-3-cyclopropylpyridin-2(1H)-one]	500 to 3000
COc1ccc(/C(=C\C2CCOCC2)c2ccc(C3CC3)c(=O)[nH]2)cc1 [Example 1-51, 3-Cyclopropyl-6-[(E)-1-(4-methoxyphenyl)-2-(tetrahydro-2H-pyran-4-yl)ethenyl]pyridin-2(1H)-one]	500 to 3000
CCOc1ccc(/C(=C\C2CCOCC2)c2ccc(C3CC3)c(=O)[nH]2)cc1 [Example 1-52, 3-Cyclopropyl-6-[(E)-1-(4-ethoxyphenyl)-2-(tetrahydro-2H-pyran-4-yl)ethenyl]pyridin-2(1H)-one]	500 to 3000
COc1ccc(/C(=C\C2CCOCC2)c2ccc(C3CC3)c(=O)[nH]2)cc1Cl [Example 1-53, 6-[(E)-1-(3-Chloro-4-methoxyphenyl)-2-(tetrahydro-2H-pyran-4-yl)ethenyl]-3-cyclopropylpyridin-2(1H)-one]	500 to 3000
COc1ccc(/C(=C\C2CCOCC2)c2ccc(C(F)(F)F)c(=O)[nH]2)cc1Cl [Example 1-54, 6-[(E)-1-(3-Chloro-4-methoxyphenyl)-2-(tetrahydro-2H-pyran-4-yl)ethenyl]-3-(trifluoromethyl)pyridin-2(1H)-one]	500 to 3000

SMILES	EC50 [nM]
CSc1ccc(/C(=C\C2CCOCC2)c2ccc(C)c(=O)[nH]2)cc1Cl [Example 1-55, 6-[(E)-1-[3-Chloro-4-(methylsulfanyl)phenyl]-2-(tetrahydro-2H-pyran-4-yl)ethenyl]-3-methylpyridin-2(1H)-one]	500 to 3000
Cc1ccc(/C(=C/C2CCOCC2)c2ccc(S(C)(=O)=O)c(Cl)c2)[nH]c1=O [Example 1-56, 6-{(E)-1-[3-Chloro-4-(methylsulfonyl)phenyl]-2-(tetrahydro-2H-pyran-4-yl)ethenyl}-3-methylpyridin-2(1H)-one]	500 to 3000
CCN(CC)CCCOc1ccc(/C(=C\C2CCOCC2)c2ccc(C3CC3)c(=O)[nH]2)cc1Cl [Example 1-57, 6-[(E)-1-{3-Chloro-4-[3-(diethylamino)propoxy]phenyl}-2-(tetrahydro-2H-pyran-4-yl)ethenyl]-3-cyclopropylpyridin-2(1H)-one]	500 to 3000
CCc1ccc(/C(=C\[C@H]2CCC(=O)C2)c2ccc(C3CC3)c(=O)[nH]2)cc1 [Example 1-58, 3-Cyclopropyl-6-{(E)-1-(4-ethylphenyl)-2-[(1S)-3-oxocyclopentyl]ethenyl}pyridin-2(1H)-one]	10 to 500
CCOc1ccc(/C(=C\[C@H]2CCC(=O)C2)c2ccc(CC)c(=O)[nH]2)cc1Cl [Example 1-59, 6-{(E)-1-(3-Chloro-4-ethoxyphenyl)-2-[(1S)-3-oxocyclopentyl]ethenyl}-3-ethylpyridin-2(1H)-one]	10 to 500
Cc1ccc(/C(=C/[C@H]2CCC(=O)C2)c2ccc(SC3CC3)cc2)[nH]c1=O [Example 1-60, 6-{(E)-1-[4-(Cyclopropylsulfanyl)phenyl]-2-[(1S)-3-oxocyclopentyl]ethenyl}-3-methylpyridin-2(1H)-one]	10 to 500
Cc1ccc(/C(=C/[C@H]2CCC(=O)C2)c2ccc(S(=O)(=O)C3CC3)cc2)[nH]c1=O [Example 1-61, 6-{(E)-1-[4-(Cyclopropylsulfonyl)phenyl]-2-[(1S)-3-oxocyclopentyl]ethenyl}-3-methylpyridin-2(1H)-one]	10 to 500
CCc1ccc(/C(=C/[C@H]2CCC(=O)C2)c2ccc(S(=O)(=O)C3CC3)cc2)[nH]c1=O [Example 1-62, 6-{(E)-1-[4-(Cyclopropylsulfonyl)phenyl]-2-[(1S)-3-oxocyclopentyl]ethenyl}-3-ethylpyridin-2(1H)-one]	10 to 500
O=C1CC[C@H](/C=C(\c2ccc(S(=O)(=O)C3CC3)cc2)c2ccc(C(F)(F)F)c(=O)[nH]2)C1 [Example 1-63, 6-{(E)-1-[4-(Cyclopropylsulfonyl)phenyl]-2-[(1S)-3-oxocyclopentyl]ethenyl}-3-(trifluoromethyl)pyridin-2(1H)-one]	500 to 3000
CSc1ccc(/C(=C\[C@H]2CCC(=O)C2)c2ccc(C(C)C)c(=O)[nH]2)cc1 [Example 1-64, 6-{(E)-1-[4-(Methylsulfanyl)phenyl]-2-[(1S)-3-oxocyclopentyl]ethenyl}-3-(propan-2-yl)pyridin-2(1H)-one]	10 to 500
CSc1ccc(/C(=C\[C@H]2CCC(=O)C2)c2ccc(C3CC3)c(=O)[nH]2)cc1 [Example 1-65, 3-Cyclopropyl-6-{(E)-1-[4-(methylsulfanyl)phenyl]-2-[(1S)-3-oxocyclopentyl]ethenyl}pyridin-2(1H)-one]	10 to 500
CCN(CC)CCCOc1ccc(/C(=C\[C@H]2CCC(=O)C2)c2ccc(C3CC3)c(=O)[nH]2)cc1 [Example 1-66, 3-Cyclopropyl-6-{(E)-1-{4-[3-(diethylamino)propoxy]phenyl}-2-[(1S)-3-oxocyclopentyl]ethenyl}pyridin-2(1H)-one]	500 to 3000
CSc1ccc(/C(=C\[C@H]2CCC(=O)C2)c2ccc(C)c(=O)[nH]2)cc1Cl [Example 1-67, 6-{(E)-1-[3-Chloro-4-(methylsulfanyl)phenyl]-2-[(1S)-3-oxocyclopentyl]ethenyl}-3-methylpyridin-2(1H)-one]	10 to 500
Cc1ccc(/C(=C/[C@H]2CCC(=O)C2)c2ccc(S(C)(=O)=O)c(Cl)c2)[nH]c1=O [Example 1-68, 6-{(E)-1-[3-Chloro-4-(methylsulfonyl)phenyl]-2-[(1S)-3-oxocyclopentyl]ethenyl}-3-methylpyridin-2(1H)-one]	500 to 3000
CCc1ccc(/C(=C/[C@H]2CCC(=O)C2)c2ccc(SC)c(Cl)c2)[nH]c1=O [Example 1-69, 6-{(E)-1-[3-Chloro-4-(methylsulfanyl)phenyl]-2-[(1S)-3-oxocyclopentyl]ethenyl}-3-ethylpyridin-2(1H)-one]	10 to 500
